Columns and labels:
[1] = Antiviral activity against HIV1 K103N mutant in MT4 cells by MTT assay
[2] = Antiviral activity against HIV1 Y188L mutant in MT4 cells by MTT assay
[3] = Antiviral activity against HIV1 IRLL98 in MT4 cells by MTT assay
[4] = Antiviral activity against wild type HIV1 NL4-3 in MT4 cells by MTT assay
[5] = Antiviral activity against HIV1 Y181C mutant in MT4 cells by MTT assay

Row | SMILES | EC50 [1] [µM] | EC50 [2] [µM] | EC50 [3] [µM] | EC50 [4] [µM] | EC50 [5] [µM]
1 | COc1ccc(Sc2nc(Cc3c(F)cccc3F)c(C)c(=O)[nH]2)cc1 | > 57.5 | > 57.5 | > 57.5 | 0.67 | 
2 | COc1ccc(Sc2nc(Cc3c(Cl)cccc3Cl)c(C)c(=O)[nH]2)cc1 | > 61.4 | > 61.4 | > 61.4 | 26.5 | > 61.4
3 | Cc1c(Cc2c(F)cccc2F)nc(Sc2ccc(Cl)cc2)[nH]c1=O | 8.01 | > 66.1 | > 66.1 | 0.1 | 
4 | Cc1c(Cc2c(Cl)cccc2Cl)nc(Sc2ccc(F)cc2F)[nH]c1=O | > 60.5 | > 60.5 | 44.7 | 3.36 | 
5 | Cc1c(Cc2c(F)cccc2F)nc(Sc2ccccc2)[nH]c1=O | 42.5 | > 72.7 | 16.7 | 0.09 | 
6 | COc1ccc(Sc2nc(Cc3c(Cl)cccc3Cl)c(C)c(=O)[nH]2)cn1 | > 61.7 | > 61.3 | 8.68 | 2.72 | 6.52
7 | Cc1c(Cc2c(Cl)cccc2Cl)nc(Sc2ccc(C#N)cc2)[nH]c1=O | > 27.6 | > 27.6 | > 27.6 | 2.49 | 5.1
8 | Cc1c(Cc2c(F)cccc2F)nc(Sc2ccc(F)cc2F)[nH]c1=O | > 65.8 | > 65.8 | 25.8 | 0.31 | 
9 | Cc1c(Cc2c(Cl)cccc2Cl)nc(Sc2ccccc2)[nH]c1=O | > 66.3 | > 66.3 | 4.91 | 1.8 | 12.1
10 | Cc1cn([C@H]2C[C@H](N=[N+]=[N-])[C@@H](CO)O2)c(=O)[nH]c1=O [1-((2R,4S,5S)-4-Azido-5-hydroxymethyl-tetrahydro-furan-2-yl)-5-methyl-1H-pyrimidine-2,4-dione] | 0.003 | 0.003 | 0.008 |  | 

Source: BindingDB's records for doi:10.1016/j.bmcl.2006.03.080 (University of Siena, 2006)
